Experimental data published in PubChem BioAssay AID330 (DTP/NCI, 2004).
Values joined by “and” are separate entries in the source; they are usually repeats but may differ in a detail not shown here. Identical values can stand only once. Toxic doses and inconclusive results are not listed.

System: P388 leukemia ip, CD2F1 mice, survival T/C
Test: NCI In Vivo Anticancer Drug Screen. Data for tumor model P388 Leukemia (intraperitoneal) in CD2F1 (CDF1) mice
Details: endpoint: median survival time, higher = longer survival
Method in brief: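 Mice carrying the transplanted tumor received test compound or vehicle. Survival was recorded in each group, and the value is the treated-group measurement divided by that of the vehicle-treated control group.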

[1] = dose: 100.0 mg/kg/injection, schedule: Q01DX009 (ip), vehicle: saline with Tween-80
[2] = dose: 200.0 mg/kg/injection, schedule: Q01DX009 (ip), vehicle: saline with Tween-80
[3] = dose: 50.0 mg/kg/injection, schedule: Q01DX009 (ip), vehicle: Klucel (hydroxypropylcellulose) (HPC)
[4] = dose: 100.0 mg/kg/injection, schedule: Q01DX009 (ip), vehicle: Klucel (hydroxypropylcellulose) (HPC)
[5] = dose: 200.0 mg/kg/injection, schedule: Q01DX009 (ip), vehicle: Klucel (hydroxypropylcellulose) (HPC)
[6] = dose: 50.0 mg/kg/injection, schedule: Q01DX009 (ip), vehicle: saline with Tween-80
[7] = dose: 50.0 mg/kg/injection, schedule: Q01DX005 (ip), vehicle: Klucel (hydroxypropylcellulose) (HPC)
[8] = dose: 100.0 mg/kg/injection, schedule: Q01DX005 (ip), vehicle: Klucel (hydroxypropylcellulose) (HPC)
[9] = dose: 100.0 mg/kg/injection, schedule: Q04DX003 (ip), vehicle: saline with Tween-80
[10] = dose: 200.0 mg/kg/injection, schedule: Q04DX003 (ip), vehicle: saline with Tween-80
[11] = dose: 400.0 mg/kg/injection, schedule: Q04DX003 (ip), vehicle: saline with Tween-80
[12] = dose: 30.0 mg/kg/injection, schedule: Q01DX005 (ip), vehicle: saline with Tween-80
[13] = dose: 60.0 mg/kg/injection, schedule: Q01DX005 (ip), vehicle: saline with Tween-80
[14] = dose: 120.0 mg/kg/injection, schedule: Q01DX005 (ip), vehicle: saline with Tween-80
[15] = dose: 50.0 mg/kg/injection, schedule: Q01DX009 (ip), vehicle: saline
[16] = dose: 100.0 mg/kg/injection, schedule: Q01DX009 (ip), vehicle: saline
[17] = dose: 200.0 mg/kg/injection, schedule: Q01DX009 (ip), vehicle: saline
[18] = dose: 12.5 mg/kg/injection, schedule: Q01DX005 (ip), vehicle: saline with Tween-80
[19] = dose: 25.0 mg/kg/injection, schedule: Q01DX005 (ip), vehicle: saline with Tween-80
[20] = dose: 50.0 mg/kg/injection, schedule: Q01DX005 (ip), vehicle: saline with Tween-80
[21] = dose: 240.0 mg/kg/injection, schedule: Q01DX005 (ip), vehicle: saline with Tween-80
[22] = dose: 12.5 mg/kg/injection, schedule: Q01DX009 (ip), vehicle: saline with Tween-80
[23] = dose: 25.0 mg/kg/injection, schedule: Q01DX009 (ip), vehicle: saline with Tween-80
[24] = dose: 200.0 mg/kg/injection, schedule: Q01DX005 (ip), vehicle: Klucel (hydroxypropylcellulose) (HPC)
[25] = dose: 12.5 mg/kg/injection, schedule: Q01DX009 (ip), vehicle: saline
[26] = dose: 25.0 mg/kg/injection, schedule: Q01DX009 (ip), vehicle: saline

## CCN(CC)C(=S)SC(=S)N(CC)CC
[1]
  T/C: 108 % of control
[2]
  T/C: 104 % of control
dose: 400.0 mg/kg/injection, schedule: Q01DX009 (ip), vehicle: saline with Tween-80
  T/C: 103 % of control

## CC(=O)OCCCn1nc(COC(N)=O)c2c1CC(C)CC2=O (centres undefined)
dose: 60.0 mg/kg/injection, schedule: Q01DX005 (ip), vehicle: Klucel (hydroxypropylcellulose) (HPC)
  T/C: 101 % of control
dose: 120.0 mg/kg/injection, schedule: Q01DX005 (ip), vehicle: Klucel (hydroxypropylcellulose) (HPC)
  T/C: 99 % of control
dose: 240.0 mg/kg/injection, schedule: Q01DX005 (ip), vehicle: Klucel (hydroxypropylcellulose) (HPC)
  T/C: 100 % of control

## CC(C)c1ccccc1S(=O)c1ccccc1C(C)(C)O (centres undefined)
[3]
  T/C: 98 % of control
[4]
  T/C: 102 % of control
[5]
  T/C: 95 % of control

## CC(C)C(NC(=O)OC(C)(C)C)C(=O)ON1C(=O)CCC1=O (centres undefined)
[6]
  T/C: 118 % of control
[1]
  T/C: 111 % of control
[2]
  T/C: 99 % of control

## C/C(Cl)=C\C(=O)c1c(C)[nH]n(-c2ccccc2)c1=O
[7]
  T/C: 99 % of control
[8]
  T/C: 111 % of control

## O=C(O)CCC(=O)c1ccc(Br)cc1
[9]
  T/C: 109 % of control
[10]
  T/C: 104 % of control
[11]
  T/C: 109 % of control

## CC(O)/C(=N\Nc1ccccc1)c1nc2ccccc2[nH]c1=O (centres undefined)
[12]
  T/C: 92 % of control
[13]
  T/C: 89 % of control
[14]
  T/C: 88 % of control

## Nc1nc(N)nc(-c2ccccc2Cl)n1
[15]
  T/C: 117 % of control
[16]
  T/C: 93 % of control
[17]
  T/C: 117 % of control

## COC(=O)C1=C(N)N2C/C(=C/c3cccs3)SC2=C(C(=O)OC)C1c1cccs1 (centres undefined)
[18]
  T/C: 96 % of control
[19]
  T/C: 91 % of control
[20]
  T/C: 86 % of control and 91 % of control

## CCCCOc1ncnc2nc[nH]c12
[7]
  T/C: 103 % of control
[8]
  T/C: 103 % of control

## c1ccc2[nH]cnc2c1
dose: 20.0 mg/kg/injection, schedule: Q04DX003 (ip), vehicle: other
  T/C: 100 % of control
dose: 40.0 mg/kg/injection, schedule: Q04DX003 (ip), vehicle: other
  T/C: 99 % of control
dose: 40.0 mg/kg/injection, schedule: Q04DX003 (oral), vehicle: other
  T/C: 100 % of control
dose: 50.0 mg/kg/injection, schedule: Q01DX009 (ip), vehicle: suspension in saline
  T/C: 98 % of control
dose: 80.0 mg/kg/injection, schedule: Q04DX003 (ip), vehicle: other
  T/C: 95 % of control
dose: 100.0 mg/kg/injection, schedule: Q01DX009 (ip), vehicle: suspension in saline
  T/C: 90 % of control
[9]
  T/C: 100 % of control
dose: 160.0 mg/kg/injection, schedule: Q04DX003 (ip), vehicle: other
  T/C: 100 % of control
dose: 160.0 mg/kg/injection, schedule: Q04DX003 (oral), vehicle: other
  T/C: 104 % of control
dose: 200.0 mg/kg/injection, schedule: Q01DX009 (ip), vehicle: suspension in saline
  T/C: 106 % of control
[10]
  T/C: 100 % of control
dose: 320.0 mg/kg/injection, schedule: Q04DX003 (ip), vehicle: other
  T/C: 100 % of control
[11]
  T/C: 90 % of control

## COc1ccc(C2C3=C(CCCC3=O)OC3=C2C(=O)CCC3)cc1
[13]
  T/C: 96 % of control
[14]
  T/C: 99 % of control
[21]
  T/C: 100 % of control

## c1ccc2sc(NC(Nc3nc4ccccc4s3)C34CC5CC(CC(C5)C3)C4)nc2c1
[22]
  T/C: 98 % of control
[23]
  T/C: 98 % of control
[6]
  T/C: 91 % of control and 96 % of control

## OC(COc1cccc(C(F)(F)F)c1)CN1CCN(c2ccc(F)cc2)CC1 (centres undefined)
[22]
  T/C: 100 % of control
dose: 25.0 mg/kg/injection, schedule: Q01DX009 (ip), vehicle: distilled water + Tween-80
  T/C: 106 % of control
[23]
  T/C: 106 % of control
dose: 50.0 mg/kg/injection, schedule: Q01DX009 (ip), vehicle: distilled water + Tween-80
  T/C: 108 % of control
[6]
  T/C: 124 % of control

## CN(c1ccc(C2=NCCN2)cc1)S(=O)(=O)c1ccc(Cc2ccc(S(=O)(=O)N(C)c3ccc(C4=NCCN4)cc3)cc2)cc1
dose: 6.25 mg/kg/injection, schedule: Q01DX005 (ip), vehicle: Klucel (hydroxypropylcellulose) (HPC)
  T/C: 103 % of control
dose: 12.5 mg/kg/injection, schedule: Q01DX005 (ip), vehicle: Klucel (hydroxypropylcellulose) (HPC)
  T/C: 97 % of control

## Cc1nn(C(=O)c2ccncc2)c(C)c1N=Nc1ccc(-c2ccc(N)cc2)cc1
[3]
  T/C: 99 % of control
[4]
  T/C: 90 % of control
[5]
  T/C: 90 % of control

## CC(OC(=O)C1C2C=CC(C2)C1C(=O)O)c1cccnc1 (centres undefined)
[7]
  T/C: 97 % of control
[8]
  T/C: 100 % of control
[24]
  T/C: 98 % of control

## Cc1cc2nc(N)sc2cc1C
[25]
  T/C: 98 % of control
[26]
  T/C: 100 % of control
[15]
  T/C: 102 % of control
[16]
  T/C: 102 % of control

## CCC1(C#N)N=C(c2ccccc2)c2ccccc2N1C(=O)OC (centres undefined)
[13]
  T/C: 96 % of control
[14]
  T/C: 98 % of control
[21]
  T/C: 98 % of control

## C[n+]1c(-c2cccc(OCCCCCCCCCCCCCCCCOc3cccc(-c4c5cc(N)ccc5c5ccc(N)cc5[n+]4C)c3)c2)c2cc(N)ccc2c2ccc(N)cc21
dose: 0.39 mg/kg/injection, schedule: Q01DX009 (ip), vehicle: water
  T/C: 117 % of control
dose: 0.78 mg/kg/injection, schedule: Q01DX009 (ip), vehicle: water
  T/C: 117 % of control
dose: 1.56 mg/kg/injection, schedule: Q01DX009 (ip), vehicle: water
  T/C: 98 % of control and 119 % of control
dose: 3.12 mg/kg/injection, schedule: Q01DX009 (ip), vehicle: water
  T/C: 113 % of control
dose: 6.25 mg/kg/injection, schedule: Q01DX009 (ip), vehicle: water
  T/C: 179 % of control

## O=C(Nc1ccccc1)SCCSC(=S)N1CCCC1
[7]
  T/C: 103 % of control
[8]
  T/C: 105 % of control
[24]
  T/C: 105 % of control

## CCCCCCC1(/C=C/c2ccc(Cl)c(Cl)c2)OCCS1 (centres undefined)
[25]
  T/C: 96 % of control
[26]
  T/C: 104 % of control
[15]
  T/C: 100 % of control and 109 % of control and 95 % of control
[16]
  T/C: 95 % of control
[17]
  T/C: 88 % of control

## O=C1CS(=O)(=O)C(c2ccccc2F)N1N1C(=O)CS(=O)(=O)C1c1ccccc1F (centres undefined)
dose: 15.0 mg/kg/injection, schedule: Q01DX005 (ip), vehicle: saline with Tween-80
  T/C: 98 % of control and 87 % of control
[12]
  T/C: 89 % of control
[13]
  T/C: 87 % of control and 89 % of control

## COc1ccc2c(c1)C(Cc1ccc(Oc3ccc(CC4c5cc(OC)ccc5CC[N+]4(C)C)cc3)cc1)[N+](C)(C)CC2 (centres undefined)
dose: 1.56 mg/kg/injection, schedule: Q04DX003 (ip), vehicle: water
  T/C: 107 % of control

## O=C1C(N=Nc2ccccc2Cl)C(O)N(c2ccccc2)C(=S)N1c1cccc(Cl)c1Cl (centres undefined)
dose: 100.0 mg/kg/injection, schedule: Q01DX001 (ip), vehicle: Klucel (hydroxypropylcellulose) (HPC)
  T/C: 98 % of control
dose: 200.0 mg/kg/injection, schedule: Q01DX001 (ip), vehicle: Klucel (hydroxypropylcellulose) (HPC)
  T/C: 103 % of control
dose: 400.0 mg/kg/injection, schedule: Q01DX001 (ip), vehicle: Klucel (hydroxypropylcellulose) (HPC)
  T/C: 97 % of control

## Nc1nc2nc[nH]c(=O)c2[nH]1
dose: 6.25 mg/kg/injection, schedule: Q01DX005 (ip), vehicle: saline with Tween-80
  T/C: 99 % of control
[18]
  T/C: 99 % of control
[19]
  T/C: 102 % of control and 106 % of control
[20]
  T/C: 102 % of control

## O=S(=O)(c1ccccc1)N1CCN(S(=O)(=O)c2ccccc2)COC1
[20]
  T/C: 103 % of control
dose: 100.0 mg/kg/injection, schedule: Q01DX005 (ip), vehicle: saline with Tween-80
  T/C: 101 % of control
dose: 200.0 mg/kg/injection, schedule: Q01DX005 (ip), vehicle: saline with Tween-80
  T/C: 102 % of control
